Test results published in the NIST ThermoML archive (doi:10.1016/j.jct.2006.09.007).
Numbers after ± are expanded uncertainties.

Tests used:
[1] = xn = mol fraction of the nth substance listed; conditions: 101.3 kPa, Liquid
[2] = 101.3 kPa, Liquid
[3] = molar heat capacity at constant pressure; conditions: 298.15 K; 101.33 kPa; Liquid; Flow calorimetry

N#Cc1ccccc1 [benzonitrile] + CCc1ccccc1
mass density ([1]; 298.15 K, x1 = 0.0616): 870.36 ± 0.46 kg/m3 | mass density ([1]; 298.15 K, x1 = 0.0673): 871.08 ± 0.46 kg/m3 | excess molar heat capacity ([1]; 298.15 K, x1 = 0.0699): 0.77 ± 0.052 J/K/mol | excess molar heat capacity ([1]; 298.15 K, x1 = 0.1221): 1.239 ± 0.053 J/K/mol | mass density ([1]; 298.15 K, x1 = 0.1384): 880.39 ± 0.43 kg/m3 | excess molar heat capacity ([1]; 298.15 K, x1 = 0.219): 1.824 ± 0.055 J/K/mol | mass density ([1]; 298.15 K, x1 = 0.2367): 893.17 ± 0.39 kg/m3 | excess molar heat capacity ([1]; 298.15 K, x1 = 0.3021): 2.096 ± 0.055 J/K/mol | excess molar heat capacity ([1]; 298.15 K, x1 = 0.3478): 2.184 ± 0.055 J/K/mol | mass density ([1]; 298.15 K, x1 = 0.3726): 911.19 ± 0.34 kg/m3 | excess molar heat capacity ([1]; 298.15 K, x1 = 0.4424): 2.181 ± 0.055 J/K/mol | mass density ([1]; 298.15 K, x1 = 0.4563): 922.38 ± 0.31 kg/m3 | mass density ([1]; 298.15 K, x1 = 0.4991): 928.14 ± 0.3 kg/m3 | excess molar heat capacity ([1]; 298.15 K, x1 = 0.5151): 2.098 ± 0.055 J/K/mol | mass density ([1]; 298.15 K, x1 = 0.5903): 940.59 ± 0.26 kg/m3 | excess molar heat capacity ([1]; 298.15 K, x1 = 0.5925): 1.917 ± 0.055 J/K/mol | excess molar heat capacity ([1]; 298.15 K, x1 = 0.6379): 1.786 ± 0.054 J/K/mol | mass density ([1]; 298.15 K, x1 = 0.6935): 955 ± 0.23 kg/m3 | excess molar heat capacity ([1]; 298.15 K, x1 = 0.7404): 1.395 ± 0.053 J/K/mol | mass density ([1]; 298.15 K, x1 = 0.7801): 967.39 ± 0.2 kg/m3 | excess molar heat capacity ([1]; 298.15 K, x1 = 0.8033): 1.119 ± 0.053 J/K/mol | excess molar heat capacity ([1]; 298.15 K, x1 = 0.8857): 0.666 ± 0.052 J/K/mol | mass density ([1]; 298.15 K, x1 = 0.8862): 983.01 ± 0.16 kg/m3 | excess molar heat capacity ([1]; 298.15 K, x1 = 0.947): 0.33 ± 0.051 J/K/mol | mass density ([1]; 298.15 K, x1 = 0.9502): 992.6 ± 0.15 kg/m3 | mass density ([1]; 298.15 K, x1 = 1): 1000.25 ± 0.13 kg/m3 | mass density ([1]; 308.15 K, x1 = 0.0616): 860.67 ± 0.47 kg/m3 | mass density ([1]; 308.15 K, x1 = 0.0673): 861.35 ± 0.47 kg/m3 | mass density ([1]; 308.15 K, x1 = 0.1384): 870.62 ± 0.44 kg/m3 | mass density ([1]; 308.15 K, x1 = 0.2367): 883.4 ± 0.4 kg/m3 | mass density ([1]; 308.15 K, x1 = 0.3726): 901.43 ± 0.35 kg/m3 | mass density ([1]; 308.15 K, x1 = 0.4563): 912.65 ± 0.33 kg/m3 | mass density ([1]; 308.15 K, x1 = 0.4991): 918.47 ± 0.31 kg/m3 | mass density ([1]; 308.15 K, x1 = 0.5903): 931 ± 0.28 kg/m3 | mass density ([1]; 308.15 K, x1 = 0.6935): 945.46 ± 0.24 kg/m3 | mass density ([1]; 308.15 K, x1 = 0.7801): 957.85 ± 0.21 kg/m3 | mass density ([1]; 308.15 K, x1 = 0.8862): 973.45 ± 0.18 kg/m3 | mass density ([1]; 308.15 K, x1 = 0.9502): 983.07 ± 0.16 kg/m3 | mass density ([1]; 308.15 K, x1 = 1): 990.67 ± 0.15 kg/m3

Cc1ccc(C)cc1 [1,4-dimethylbenzene] + N#Cc1ccccc1
mass density ([1]; 298.15 K, x2 = 0): 856.48 ± 0.49 kg/m3 | mass density ([1]; 308.15 K, x2 = 0): 846.98 ± 0.51 kg/m3

Cc1cc(C)cc(C)c1 [1,3,5-trimethylbenzene]
mass density ([2]; 298.15 K): 860.9 ± 0.49 kg/m3 | mass density ([2]; 308.15 K): 851.88 ± 0.5 kg/m3 | molar heat capacity at constant pressure [3]: 207.43 ± 0.42 J/K/mol

COc1ccccc1 [anisole] + N#Cc1ccccc1
mass density ([1]; 298.15 K, x2 = 0): 988.98 ± 0.34 kg/m3 | mass density ([1]; 308.15 K, x2 = 0): 978.7 ± 0.35 kg/m3

Cc1ccc(C)cc1 [1,4-dimethylbenzene]
mass density ([2]; 298.15 K): 856.48 ± 0.49 kg/m3 | mass density ([2]; 308.15 K): 846.98 ± 0.51 kg/m3 | molar heat capacity at constant pressure [3]: 181.73 ± 0.37 J/K/mol

N#Cc1ccccc1 [benzonitrile]
mass density ([2]; 298.15 K): 1000.25 ± 0.13 kg/m3 | mass density ([2]; 308.15 K): 990.67 ± 0.15 kg/m3 | molar heat capacity at constant pressure [3]: 166.41 ± 0.34 J/K/mol

CCc1ccccc1 [ethylbenzene] + N#Cc1ccccc1
mass density ([1]; 298.15 K, x2 = 0): 862.41 ± 0.49 kg/m3 | mass density ([1]; 308.15 K, x2 = 0): 852.72 ± 0.5 kg/m3

Cc1ccc(C)c(C)c1 [1,2,4-trimethylbenzene] + N#Cc1ccccc1
mass density ([1]; 298.15 K, x2 = 0): 871.56 ± 0.48 kg/m3 | mass density ([1]; 308.15 K, x2 = 0): 862.53 ± 0.49 kg/m3

Cc1ccc(C)c(C)c1 [1,2,4-trimethylbenzene]
mass density ([2]; 298.15 K): 871.56 ± 0.48 kg/m3 | mass density ([2]; 308.15 K): 862.53 ± 0.49 kg/m3 | molar heat capacity at constant pressure [3]: 213.02 ± 0.44 J/K/mol

CCc1ccccc1 [ethylbenzene]
mass density ([2]; 298.15 K): 862.41 ± 0.49 kg/m3 | mass density ([2]; 308.15 K): 852.72 ± 0.5 kg/m3 | molar heat capacity at constant pressure [3]: 185.44 ± 0.38 J/K/mol

COc1ccccc1 [anisole]
mass density ([2]; 298.15 K): 988.98 ± 0.34 kg/m3 | mass density ([2]; 308.15 K): 978.7 ± 0.35 kg/m3 | molar heat capacity at constant pressure [3]: 191.54 ± 0.39 J/K/mol

Cc1ccccc1C [1,2-dimethylbenzene]
mass density ([2]; 298.15 K): 875.55 ± 0.47 kg/m3 | mass density ([2]; 308.15 K): 866.29 ± 0.48 kg/m3 | molar heat capacity at constant pressure [3]: 187.28 ± 0.39 J/K/mol
